# According to patent US20200308170A1, “KRAS G12C INHIBITORS” (Mirati Therapeutics, Inc., priority 2017, published 2020):
# Experiments:
# KRas G12C [1] = molecular target: T1, KRas G12C (Homo sapiens, UniProt P01116, C118S/C51S/C80L/G12C); assay: KRas G12C Modification Assay (LCMS detection of covalent adduct); format: binding; details: 5 μM concentration for 3 hours; LC/MS of intact protein; higher POC = higher degree of modification
# T1 construct: GDP-loaded K-Ras (1-169) G12C, C51S, C80L, C118S
# Procedure: A 10 μL aliquot of each protein solution was then transferred to a 384 well microtiter plate. Initial compound stocks were generated at fifty times their desired final assay concentration in DMSO.
# Exemplary compounds of Formula (II) were diluted 25-fold into K-Ras Assay Buffer to a final of two times their final concentration. A 10 μL aliquot of each diluted compound solution was then added to each of the protein solutions in the microtiter plate to initiate reaction. […] At each time point, the reactions were quenched with 20 μL of a 25 mM acetic acid solution. […] Once all reactions were quenched, the plates were heat sealed and the samples were injected into a LC/MS system for data acquisition.
# Samples were injected in their liquid phase onto a C-3 reverse phase column to remove assay buffer and prepare the samples for mass spectrometer. The proteins were eluted from the column using an acetonitrile gradient and fed directly into the mass analyzer. Initial raw data analysis took place in Agilent MassHunter software immediately post data acquisition.
# Raw data analysis of the intact protein was exclusively a deconvolution of the multiple charge states of each protein in solution using a maximum entropy deconvolution provided in Mass Hunter. To minimize complexity, only the data over limited mass ranges were considered for analysis, with a minimum of one Dalton mass step intervals. The heights of all masses identified during raw data analysis were exported to be further analyzed in Spotfire® data analysis software.
# Final data analysis was a multistep process in the Spotfire® data analysis software package. Briefly, each protein mass was calculated as a percent of the total signal of that sample, that percentage was then normalized to the percentage of signal of the protein in the absence of reactive compounds. Those normalized signals were reported as normalized percent of control (POC). […] Key: “A”≤25% POC; “B”>25% POC−≤50% POC; “C”>50% POC and ND=not determined.
# KRas G12C [2] = molecular target: KRas G12C (Homo sapiens, UniProt P01116, G12C); assay: Inhibition of KRas G12C in NCI-H358 cells measured by phosphorylated ERK (Phospho-ERK); format: cell-based; details: 3 hours, 4 parameter fit, read-out: IC50 (pERK(Thr202/Tyr204) signal normalized with GAPDH)
# Procedure: Cells were plated in poly-D-Lysine coated 96-well plates at a concentration of 50,000 cells/well and allowed to attach for 8-12 hours. Diluted compounds were then added at a final concentration of 0.5% DMSO. After 3 hours, the medium was removed, 150 μL of 4% formaldehyde was added and the plates were incubated for 20 minutes. The plates were washed with PBS, and permeabilized using 150 μL of ice cold 100% methanol for 10 minutes. Non-specific antibody binding to the plates was blocked using 100 μL Licor Blocking Buffer (Li-Cor Biotechnology, Lincoln Nebr.) for 1 hour at room temperature. Positive control samples and samples lacking cells were parallel processed with test samples as standards.
# The amount Phospho-ERK was determined using an antibody specific for the phosphorylated form of ERK and compared to the amount of GAPDH. […] The plates were incubated for 2 hours at room temperature. The plates were washed with PBS+0.05% Tween 20.
# Secondary antibodies used to visualize primary antibodies were added as follows: Anti-rabbit-680 diluted 1:1000 and Anti-mouse-800 diluted 1:1000 in Licor Block+0.05% Tween 20 and incubated for 1 hour at room temperature. The plates were washed with PBS+0.05% Tween 20. A 100 μL aliquot of PBS was added to each well and the plates were read on a LICOR AERIUS plate reader.
# The pERK(Thr202/Tyr204) signal was normalized with the GAPDH signal and percent of DMSO control values were calculated. IC50 values were generated using a 4 parameter fit of the dose response curve.
SMILES,POC (normalized percent of control; degree of covalent modification of KRas G12C) (KRas G12C [1]),IC50 (KRas G12C [2]) [nM]
"Cc1cccc2cccc(N3CCc4c(nc(OC[C@@H]5CCCN5C)nc4N4CCN(C(=O)/C=C/C(=O)N(C)C)[C@@H](CC#N)C4)C3)c12 [Example 28, (E)-4-((S)-2-(cyanomethyl)-4-(7-(8-methylnaphthalen-1-yl)-2-(((S)-1-methylpyrrolidin-2-yl)methoxy)-5,6,7,8-tetrahydropyrido[3,4-d]pyrimidin-4-yl)piperazin-1-yl)-N,N-dimethyl-4-oxobut-2-enamide]",C (“C”>50% POC),–
"C=C(Cl)C(=O)N1CCN(c2nc(OC[C@@H]3CCCN3C)nc3c2CCN(c2cccc(C)c2C)C3)C[C@@H]1CC#N [Example 2, 2-[(2S)-1-(2-chloroprop-2-enoyl)-4-[7-(2,3-dimethylphenyl)-2-[[(2S)-1-methylpyrrolidin-2-yl]methoxy]-6,8-dihydro-5H-pyrido[3,4-d]pyrimidin-4-yl]piperazin-2-yl]acetonitrile]",C (“C”>50% POC),–
"COC/C=C/C(=O)N1CCN(c2nc(OC[C@@H]3CCCN3C)nc3c2CCN(c2cccc4cccc(Cl)c24)C3)C[C@@H]1CC#N [Example 53, 2-((S)-4-(7-(8-chloronaphthalen-1-yl)-2-(((S)-1-methylpyrrolidin-2-yl)methoxy)-5,6,7,8-tetrahydropyrido[3,4-d]pyrimidin-4-yl)-1-((E)-4-methoxybut-2-enoyl)piperazin-2-yl)acetonitrile]",C (“C”>50% POC),–
"C=C(OC)C(=O)N1CCN(c2nc(OC[C@@H]3CCCN3C)nc3c2CCN(c2cccc4cccc(C)c24)C3)C[C@@H]1CC#N [Example 41, 2-[(2S)-1-(2-methoxyprop-2-enoyl)-4-[7-(8-methyl-1-naphthyl)-2-[[(2S)-1-methylpyrrolidin-2-yl]methoxy]-6,8-dihydro-5H-pyrido[3,4-d]pyrimidin-4-yl]piperazin-2-yl]acetonitrile]",A (“A”≤25% POC),–
"Cc1cccc(N2CCc3c(nc(OC[C@@H]4CCCN4C)nc3N3CCN(C(=O)/C=C\Cl)[C@@H](CC#N)C3)C2)c1C [Example 34, 2-((S)-1-((Z)-3-chloroacryloyl)-4-(7-(2,3-dimethylphenyl)-2-(((S)-1-methylpyrrolidin-2-yl)methoxy)-5,6,7,8-tetrahydropyrido[3,4-d]pyrimidin-4-yl)piperazin-2-yl)acetonitrile]",C (“C”>50% POC),–
"C=C(C(=O)N1CCN(c2nc(OC[C@@H]3CCCN3C)nc3c2CCN(c2cccc(C)c2C)C3)C[C@@H]1CC#N)C(F)(F)F [Example 16, 2-((S)-4-(7-(2,3-dimethylphenyl)-2-(((S)-1-methylpyrrolidin-2-yl)methoxy)-5,6,7,8-tetrahydropyrido[3,4-d]pyrimidin-4-yl)-1-(2-(trifluoromethyl)acryloyl)piperazin-2-yl)acetonitrile]",A (“A”≤25% POC),–
"Cc1cccc2cccc(N3CCc4c(nc(OC[C@@H]5CCCN5C)nc4N4CCN(C(=O)/C=C/CF)[C@@H](CC#N)C4)C3)c12 [Example 35, 2-((S)-1-((E)-4-fluorobut-2-enoyl)-4-(7-(8-methylnaphthalen-1-yl)-2-(((S)-1-methylpyrrolidin-2-yl)methoxy)-5,6,7,8-tetrahydropyrido[3,4-d]pyrimidin-4-yl)piperazin-2-yl)acetonitrile]",C (“C”>50% POC),–
"Cc1cccc2cccc(N3CCc4c(nc(OC[C@@H]5CCCN5C)nc4N4CCN(C(=O)/C=C/C(F)(F)F)[C@@H](CC#N)C4)C3)c12 [Example 20, 2-((S)-4-(7-(8-methylnaphthalen-1-yl)-2-(((S)-1-methylpyrrolidin-2-yl)methoxy)-5,6,7,8-tetrahydropyrido[3,4-d]pyrimidin-4-yl)-1-((E)-4,4,4-trifluorobut-2-enoyl)piperazin-2-yl)acetonitrile]",C (“C”>50% POC),–
"Cc1cccc(N2CCc3c(nc(OC[C@@H]4CCCN4C)nc3N3CCN(C(=O)/C=C/C(F)(F)F)[C@@H](CC#N)C3)C2)c1C [Example 15, 2-((S)-4-(7-(2,3-dimethylphenyl)-2-(((S)-1-methylpyrrolidin-2-yl)methoxy)-5,6,7,8-tetrahydropyrido[3,4-d]pyrimidin-4-yl)-1-((E)-4,4,4-trifluorobut-2-enoyl)piperazin-2-yl)acetonitrile]",C (“C”>50% POC),–
"CN1CCC[C@H]1COc1nc2c(c(N3CCN(C(=O)C#CCO)[C@@H](CC#N)C3)n1)CCN(c1cccc3ccccc13)C2 [Example 3, 2-((S)-1-(4-hydroxybut-2-ynoyl)-4-(2-(((S)-1-methylpyrrolidin-2-yl)methoxy)-7-(naphthalen-1-yl)-5,6,7,8-tetrahydropyrido[3,4-d]pyrimidin-4-yl)piperazin-2-yl)acetonitrile]",C (“C”>50% POC),–
"CN(C)C/C=C(/F)C(=O)N1CCN(c2nc(OC[C@@H]3CCCN3C)nc3c2CCN(c2cccc4cccc(Cl)c24)C3)C[C@@H]1CC#N [Example 32, 2-[(2S)-4-[7-(8-chloro-1-naphthyl)-2-[[(2S)-1-methylpyrrolidin-2-yl]methoxy]-6,8-dihydro-5H-pyrido[3,4-d]pyrimidin-4-yl]-1-[(E)-4-(dimethylamino)-2-fluoro-but-2-enoyl]piperazin-2-yl]acetonitrile]",C (“C”>50% POC),–
"Cc1cccc2cccc(N3CCc4c(nc(OC[C@@H]5CCCN5C)nc4N4CCN(C(=O)/C=C/C(F)F)[C@@H](CC#N)C4)C3)c12 [Example 24, 2-((S)-1-((E)-4,4-difluorobut-2-enoyl)-4-(7-(8-methylnaphthalen-1-yl)-2-(((S)-1-methylpyrrolidin-2-yl)methoxy)-5,6,7,8-tetrahydropyrido[3,4-d]pyrimidin-4-yl)piperazin-2-yl)acetonitrile]",C (“C”>50% POC),–
C=C(F)C(=O)N1CCN(c2nc(OCC34CCCN3CCC4)nc3c2CCN(c2cccc4ccccc24)C3)C[C@@H]1CC#N [Example 146],–,0.1 to 1000
C=C(F)C(=O)N1CCN(c2nc(OC[C@@H]3CCCN3C3CCC3)nc3c2CCN(c2cccc4ccc(F)c(Cl)c24)C3)C[C@@H]1CC#N [Example 196],–,0.1 to 1000
C=C(F)C(=O)N1CCN(c2nc(OCC34CCCN3C(=O)CC4)nc3c2CCN(c2cccc4ccc(F)c(Cl)c24)C3)C[C@@H]1CC#N (stereo partly shown) [Example 145],–,1000 to 10000
C=C(F)C(=O)N1CCN(c2nc(OCCNCC(F)(F)F)nc3c2CCN(c2cccc4ccc(F)c(Cl)c24)C3)C[C@@H]1CC#N [Example 200],–,0.1 to 1000
C=C(F)C(=O)N1CCN(c2nc(OCC3CCC(C)(C)N3C)nc3c2CCN(c2cccc4ccc(F)c(Cl)c24)C3)C[C@@H]1CC#N (stereo partly shown) [Example 199],–,0.1 to 1000
C=C(F)C(=O)N1CCN(c2nc(OCC(C)C(F)F)nc3c2CCN(c2cccc4ccc(F)c(Cl)c24)C3)C[C@@H]1CC#N (stereo partly shown) [Example 192],–,1000 to 10000
C=C(F)C(=O)N1CCN(c2nc(OCC3COCCO3)nc3c2CCN(c2cccc4ccc(F)c(Cl)c24)C3)C[C@@H]1CC#N (stereo partly shown) [Example 201],–,0.1 to 1000
C=C(F)C(=O)N1CCN(c2nc(OCCN3CCCCCC3)nc3c2CCN(c2cccc4ccc(F)c(Cl)c24)C3)C[C@@H]1CC#N [Example 165],–,0.1 to 1000
C=C(F)C(=O)N1CCN(c2nc(OC[C@@H]3CC(F)(F)CN3C)nc3c2CCN(c2cccc4ccc(F)c(Cl)c24)C3)C[C@@H]1CC#N [Example 169],–,0.1 to 1000
C=C(F)C(=O)N1CCN(c2nc(OC[C@@H]3CCCN3C)nc3c2CCN(c2cccc4c2CCC4)C3)C[C@@H]1CC#N [Example 135],–,0.1 to 1000
